Laboratory results reported in patent US9359298B2, “Cajanine structure analogous compound, preparation method and use” (INSTITUTE OF MEDICINAL BIOTECHNOLOGY, CHINESE ACADEMY OF …, priority 2011, dated 2016).
In brackets after ≈: the same amount, converted by molar mass. Where two headings read alike, the source gives them in different places.

Tests used:
Assay type in all cases: cell-based
[1] = system: Influenza A virus (hanfang359/95); test: Determination of anti-influenza virus activity (CPE in MDCK cells); conditions: for IC50: Influenza A virus, MDCK, 36 h; for anti-influenza virus activities compared with the lead compound cajanine: statement in words
HCV = test: Anti-hepatitis C virus (HCV) activity assay (HCV RNA in Huh7.5 cells); conditions: for EC50: Hepatitis C virus, Huh7.5, 72 h, read-out: HCV EC50; for anti-HCV viral activity: statement in words
Procedure: Inoculate Huh7.5 cells into 96-well plates to a density of 3×10^4 cells/cm^2, culture for 24h, infect the cells with 45 IU/cell HCV supernatant, meanwhile, add drug solutions or solvent control for treatment.

HIV-1 III B virus = test: Anti-HIV activity assay (P24 antigen in MT-4 cells); conditions: for IC50: Human immunodeficiency virus 1, MT4, 96 h, read-out: HIV IC50; for anti-HIV viral activity: statement in words
PC12 cells [2] = test: Neuroprotective activity assay, rotenone injury to PC12 cells (MTT); conditions: for viability at 10 µM: Rattus norvegicus, PC-12, 48 h, read-out: rotenone (surviving PC12 cells, MTT 570 nm); for protective effect on rotenone injury to PC12 cells: statement in words
Method in brief: (§1)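 Survival measured as MTT absorbance at 570 nm after 4 h dye uptake. Compounds (10 μM) were co-applied for 48 h to PC12 cells deprived of serum or exposed to 4 μM rotenone, following 24 h seeding on poly-lysine.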

PC12 cells [3] = test: Neuroprotective activity assay, serum-deprived injury to PC12 cells (MTT); conditions: for viability at 10 µM: Rattus norvegicus, PC-12, 48 h, read-out: serum-deprived (surviving PC12 cells, MTT 570 nm); for protective effect on serum-deprived injury to PC12 cells: statement in words
Method in brief: as §1

Coxsackie virus B6 = test: Coxsackie virus activity assay (CPE in Vero cells); conditions: for IC50: Vero
[4] = Huh7.5 cells, 72 h, HCV RNA by RT-PCR, Reed-Muench
[5] = MT-4 cells, HIV-1 III B 100TCID50, 96 h, P24 antigen
[6] = 10 μM test compound, 4 μM rotenone, 48 h, Control 100.0 ± 8.9, Model 73.2 ± 7.8
[7] = 10 μM test compound, 48 h, Control 100.0 ± 9.2, Model 69.3 ± 4.1
[8] = read-out: COX-B6 IC50, Vero cells, about 100TCID50, CPE, Reed-Muench

Compound	IC50 [1]	EC50 (HCV; [4])	IC50 (HIV-1 III B virus; [5])	viability at 10 µM (PC12 cells [2]; [6])	viability at 10 µM (PC12 cells [3]; [7])	IC50 (Coxsackie virus B6; [8])	also measured
COc1cc(/C=C/c2ccccc2)c(C(=O)NC(=N)N)c(O)c1CC=C(C)C [Compound 23b, N-amidino-2-hydroxy-3-isopentenyl-4-methoxy-6-[(E)-styryl]benzamide]	0.13 µg/mL (≈ 0.343 µM)	0.53 µg/mL (≈ 1.4 µM)	3.9 µg/mL (≈ 10.3 µM)	81.3 ± 5%	79.8 ± 4.6%	0.24 µg/mL (≈ 0.632 µM)	anti-influenza virus activities compared with the lead compound cajanine [1]: significantly stronger than the lead compound cajanine; anti-HCV viral activity (HCV): stronger anti-HIV, HCV viral activities; anti-HIV viral activity (HIV-1 III B virus): stronger anti-HIV, HCV viral activities
COc1cc(/C=C/c2ccccc2)c(C(=O)O)c(OC(=O)CN)c1CC=C(C)C [Compound 24b, 2-Aminoacetoxy-3-isopentenyl-4-methoxy-6-[(E)-styryl]benzoic acid]	4.25 µg/mL (≈ 10.7 µM)	1.68 µg/mL (≈ 4.25 µM)	2.01 µg/mL (≈ 5.08 µM)	88.3 ± 5.2%	89.7 ± 5.6%	1.24 µg/mL (≈ 3.14 µM)	–
COc1cc(/C=C/c2ccccc2)c(C(=O)O)c(OC(C)=O)c1CC=C(C)C [Compound 24h]	0.45 µg/mL (≈ 1.18 µM)	2.39 µg/mL (≈ 6.28 µM)	1.33 µg/mL (≈ 3.5 µM)	87.8 ± 6.3%	88.9 ± 5.4%	1.21 µg/mL (≈ 3.18 µM)	–
COc1cc(/C=C/c2ccccc2)c(C(=O)O)c(OC(=O)c2cccnc2)c1CC=C(C)C [Compound 24k, 2-(pyridyl-3-formylox)-3-isopentenyl-4-methoxy-6-[(E)-styryl]benzoic acid]	3.55 µg/mL (≈ 8 µM)	4.87 µg/mL (≈ 11 µM)	2.17 µg/mL (≈ 4.89 µM)	85.6 ± 2.1%	89.6 ± 2.3%	1.36 µg/mL (≈ 3.07 µM)	protective effect on rotenone injury to PC12 cells (PC12 cells [2]): the strongest activities; protective effect on serum-deprived injury to PC12 cells (PC12 cells [3]): the strongest activities
COc1cc(/C=C/c2ccccc2)c(C(=O)O)c(OC(=O)CN(C)C)c1CC=C(C)C [Compound 24n, 2-(N,N-dimethylacetyloxy)-3-isopentenyl-4-methoxy-6-[(E)-styryl]benzoic acid]	7.21 µg/mL (≈ 17 µM)	1.97 µg/mL (≈ 4.65 µM)	3.12 µg/mL (≈ 7.37 µM)	79.8 ± 5.6%	75.8 ± 3.2%	1.35 µg/mL (≈ 3.19 µM)	–
COc1cc(/C=C/c2ccccc2)c(C(=O)O)c(OC(=O)c2cnc[nH]2)c1CC=C(C)C [Compound 24q]	1.98 µg/mL (≈ 4.58 µM)	1.54 µg/mL (≈ 3.56 µM)	2.85 µg/mL (≈ 6.59 µM)	90.5 ± 5.6%	92.3 ± 1.2%	1.35 µg/mL (≈ 3.12 µM)	protective effect on rotenone injury to PC12 cells (PC12 cells [2]): the strongest activities; protective effect on serum-deprived injury to PC12 cells (PC12 cells [3]): the strongest activities
COc1cc(/C=C/c2ccccc2)c(C(=O)O)c(OCN)c1CC=C(C)C [Compound 26b, 2-aminomethoxy-3-isopentenyl-4-methoxy-6-[(E)-styryl]benzoic acid]	3.65 µg/mL (≈ 9.93 µM)	5.66 µg/mL (≈ 15.4 µM)	7.83 µg/mL (≈ 21.3 µM)	89.7 ± 6.3%	88.2 ± 4.1%	3.54 µg/mL (≈ 9.63 µM)	–
COc1cc(/C=C/c2ccccc2)c(C(=O)O)c(OCC2CNCCN2)c1CC=C(C)C (stereo not drawn) [Compound 26e, 2-(piperazin-2-yl)methoxy-3-isopentenyl-4-methoxy-6-[(E)-styryl]benzoic acid]	2.31 µg/mL (≈ 5.29 µM)	2.28 µg/mL (≈ 5.22 µM)	2.77 µg/mL (≈ 6.35 µM)	87.6 ± 5.6%	85.6 ± 2.9%	1.32 µg/mL (≈ 3.02 µM)	–
COc1cc(/C=C/c2ccccc2)c(C(=O)O)c(OC(=N)N)c1CC=C(C)C [Compound 27b, 2-iso-ureido-3-isopentenyl-4-methoxy-6-[(E)-styryl]benzoic acid]	2.14 µg/mL (≈ 5.63 µM)	1.83 µg/mL (≈ 4.81 µM)	4.91 µg/mL (≈ 12.9 µM)	92.3 ± 2.6%	91.5 ± 6.1%	1.24 µg/mL (≈ 3.26 µM)	protective effect on rotenone injury to PC12 cells (PC12 cells [2]): the strongest activities; protective effect on serum-deprived injury to PC12 cells (PC12 cells [3]): the strongest activities
COc1cc(/C=C/c2ccccc2)c(C(=O)O)c(OC(=O)NN)c1CC=C(C)C [Compound 29b, 2-Hydrazinoformyloxy-3-isopentenyl-4-methoxy-6-[(E)-styryl]benzoic acid]	1.21 µg/mL (≈ 3.05 µM)	–	–	–	–	–	EC50 (HCV): 1.36 µg/mL (≈ 3.43 µM); IC50 (HIV-1 III B virus): 1.88 µg/mL (≈ 4.74 µM); viability at 10 µM (PC12 cells [2]): 78.9 ± 5.6%; viability at 10 µM (PC12 cells [3]): 74.5 ± 4.6%; IC50 (Coxsackie virus B6; read-out: COX-B6 IC50): 0.67 µg/mL (≈ 1.69 µM)
COc1cc(/C=C/c2ccccc2)c(C(=O)O)c(OC(=O)C(=O)O)c1CC=C(C)C [Compound 31b, 2-carboxyformyloxy-3-isopentenyl-4-methoxy-6-[(E)-styryl]benzoic acid]	0.54 µg/mL (≈ 1.32 µM)	0.99 µg/mL (≈ 2.41 µM)	2.8 µg/mL (≈ 6.82 µM)	80.5 ± 6.4%	88.6 ± 2.6%	1.21 µg/mL (≈ 2.95 µM)	anti-influenza virus activities compared with the lead compound cajanine [1]: significantly stronger than the lead compound cajanine; anti-HCV viral activity (HCV): stronger anti-HIV, HCV viral activities; anti-HIV viral activity (HIV-1 III B virus): stronger anti-HIV, HCV viral activities
COc1cc(/C=C/c2ccccc2)c(C(N)=O)c(O)c1CC=C(C)C [Compound 32, 2-hydroxy-3-isopentenyl-4-methoxy-6-[(E)-styryl]benzamide]	0.21 µg/mL (≈ 0.622 µM)	1.37 µg/mL (≈ 4.06 µM)	0.16 µg/mL (≈ 0.474 µM)	92.3 ± 1.2%	94.5 ± 2.3%	0.54 µg/mL (≈ 1.6 µM)	anti-influenza virus activities compared with the lead compound cajanine [1]: significantly stronger than the lead compound cajanine; protective effect on rotenone injury to PC12 cells (PC12 cells [2]): the strongest activities; protective effect on serum-deprived injury to PC12 cells (PC12 cells [3]): the strongest activities
CC(C)=CCc1c(O)cc(/C=C/c2ccccc2)c(C(=O)O)c1O [Compound 33, 2,4-dihydroxy-3-isopentenyl-6-[(E)-styryl]benzoic acid]	–	–	–	–	–	–	Influenza A virus (hanfang359/95) IC50 [1]: 2.35 µg/mL; HCV EC50 (HCV; [4]): 1.55 µg/mL; HIV IC50 (HIV-1 III B virus; [5]): 2.01 µg/mL; rotenone (surviving PC12 cells, MTT 570 nm) (PC12 cells [2]; [6]): 75.6 ± 2.1; serum-deprived (surviving PC12 cells, MTT 570 nm) (PC12 cells [3]; [7]): 16.8 ± 0.4; COX-B6 IC50 (Coxsackie virus B6; Vero cells, about 100TCID50, CPE, Reed-Muench): 2.31 µg/mL
COC(=O)c1c(CCc2ccccc2)cc(OC)c(CC=C(C)C)c1O [Compound 36, methyl 2-hydroxy-3-isopentenyl-4-methoxy-6-phenethyl benzoate]	> 2.46 µg/mL	3.86 µg/mL (≈ 10.9 µM)	1.06 µg/mL (≈ 2.99 µM)	72.2 ± 12.2%	41 ± 15.4%	> 2.46 µg/mL	–
COc1cc(CCc2ccccc2)c(C(=O)O)c(O)c1CC=C(C)C [Compound 37, 2-hydroxy-3-isopentenyl-4-methoxy-6-phenethyl benzoic acid]	> 22.2 µg/mL	12.2 µg/mL (≈ 35.8 µM)	2.09 µg/mL (≈ 6.14 µM)	60.4 ± 7.8%	29 ± 11.2%	> 2.05 µg/mL	–
methyl 2-hydroxy-3-isopentenyl-4-methoxy-6-(4′-methyl-cyclohexylenemethyl)benzoate [Compound 8n]	–	–	–	–	–	–	Influenza A virus (hanfang359/95) IC50 [1]: >2.06 µg/mL; HCV EC50 (HCV; [4]): 1.06 µg/mL; HIV IC50 (HIV-1 III B virus; [5]): 2.17 µg/mL; rotenone (surviving PC12 cells, MTT 570 nm) (PC12 cells [2]; [6]): 78.0 ± 9.2; serum-deprived (surviving PC12 cells, MTT 570 nm) (PC12 cells [3]; [7]): 53.7 ± 3.8; COX-B6 IC50 (Coxsackie virus B6): >6.17 µg/mL
